“And” between values parts separate entries of the source, which are not always exact repeats. Equal entries are not always repeated. “Also recorded” adds a separate entry of the source.
Tests used:
[1] = system: MCF-7 cell line; assay: MTT growth assay, MCF-7 line; format: cell-based
Protocol: The growth of the MCF-7 line was measured by MTT assay at 24 hours. Cells were plated in complete media in the presence of serum (10% FBS) and cultured at 37° C. with 5% CO2 and treated with the biguanide or DMSO vehicle. Growth was measured at 24 hours by MTT assay.
Cells were plated in complete media in the presence of serum (10% FBS) and cultured at 37° C. with 5% CO2 and treated with HBB or DMSO vehicle. Growth was measured at 24 hours by MTT assay.

[2] = system: CD31; assay: Angiogenesis by CD31 staining, MDA-MB-231 xenograft tumors; format: in vivo, mice; settings: MDA-MB-231 model, HBB 4 mg/kg/day ip vs PBS
Protocol: Xenogaft tumors from the MCF-7 and MDA-MB-231 models were tested for inhibition of angiogenesis by HBB using CD31 staining.
The samples were cryosectioned at 6 um and fixed with chilled 100% acetone for 10 minutes. Samples were blocked with 3% donkey serum in PBS for 30 minutes at 37 C.
The antibody used to stain CD-31 was from BD Pharmingen PE Rat anti Mouse CD31, catalog number 553373. It was used at a dilution of 1:50 in blocking buffer for 1 hour at 37 C.
The samples were then stained for 10 minutes with DAPI at a concentration of 1:2000, from Life Technologies, catalog number D1306.
Each sample was imaged in 4-5 areas. There were 3 samples per condition, PBS vs HBB.

[3] = system: MCF7; assay: ROS production, DCFDA flow cytometry, MCF7; format: cell-based; settings: MCF7, 20 uM HBB
Protocol: FIG. 33 illustrates that HBB induces reactive oxygen species (ROS) production in MCF7 and MDA-MB-231 lines. Cells in log phase growth in complete media were trypsinized and resuspended in complete media containing 20 uM DCFDA. After incubation at 37° C. for 30 minutes, cells were treated with 20 uM HBB or DMSO for 2.5 hours and analyzed by flow cytometer, monitoring fluorescence at 525 nm. Results are represented as histograms of cell count vs fluorescence intensity.

[4] = system: breast cancer cells and primary cells; assay: OCR and ECAR, XF Extracellular Flux Analyzer; format: cell-based; settings: HBB 20 uM or 40 uM vs DMSO
Protocol: Measuring glycolysis and oxidative metabolism. Cells were maintained in growth medium consisting of 10% FBS, at 37° C. with 5% CO2 and seeded at 100,000 cells per well in XF24-well cell culture microplates (for primary cells HUVEC and HDMVEC, plates were pre-coated with 0.2% college before seeding). Concentrated stocks of HBB was prepared in DMSO. HBB was diluted to 10× working concentration in XF assay medium (a non-buffered medium including 2 mM of L-glutamine but no sodium bicarbonate (buffering agent), glucose, or sodium pyruvate).
Before analysis, the cells were switched from culture medium to XF assay medium. Following baseline measurements, 75 μl of HBB prepared in assay medium was injected into each well to reach final working concentrations. Following the addition of HBB, OCR and ECAR were measured at fixed time interval.
Cells were maintained in growth medium consisting of 10% FBS, at 37° C. with 5% CO2 and seeded at 100,000 cells per well in XF24-well cell culture microplates (for HUVEC, plates were pre-coated with 0.2% college before seeding). Before analysis, the cells were switched from culture medium to XF assay medium. Following baseline measurements, 75 μl of HBB prepared in assay medium was injected into each well to reach final working concentrations. Following the addition of HBB, OCR and ECAR were measured at fixed interval. […]

[5] = target: CYP3A4 nanodiscs (Homo sapiens, UniProt P08684); assay: CYP3A4 nanodisc spin shift titration; format: binding; settings: vs metformin
[6] = system: MCF-7 xenograft; assay: MCF-7 xenograft in nude mice; format: in vivo; settings: HBB 4 mg/kg ip daily vs PBS/vehicle
Protocol: FIG. 3A. MCF-7 xenograft with 3×10^6 cells in the 2nd mammary fat pad on day 0. HBB (4 mg/kg ip daily) (ν) or PBS (ρ) treatment began on day 1. * indicates P<0.05. FIG. 3B. MDAMB-231 xenograft with 1×10^6 cells in the 2nd mammary fat pad on day 0. HBB (4 mg/kg ip daily) (ν) or PBS (ρ) treatment began on day 1. N=20 mice per arm for each study; error bars are SEM.
MCF-7 cells were implanted in the mammary fat pad of 4-5 week mice and treatment was initiated when tumor size was ≥15 mm^3 by 2 sequential measurements with randomized assignment to the treatment arms.
FIG. 44A. Nude mice were inoculated with 3×10^6 MCF-7 cells and treated with vehicle (Δ) HBB at the MTD (4 mg/kg/day ip) (▪). (* indicates P<0.05). Error bars are SEM. […] The dose limiting toxicity was weight loss. At the MTD there was a well-tolerated 4% reduction of weight at 42 days (P<0.0001; data not shown). FIG. 44B. Nude mice were inoculated with 1×10^6MDA-MB-231 cells and treated with HBB at the MTD (4 mg/kg/day ip).

[7] = system: STAT3; assay: STAT3 phosphorylation Western blot in MCF7; format: cell-based
Protocol: Western blotting analysis was performed (C=control, M=metform and H=HBB).
Total protein was extracted and analyzed by Western-blotting with GAPDH as an internal control.

[8] = system: MDA-MB-231 line; assay: 14,15-EET protection against biguanide growth inhibition, MTT, MDA-MB-231; format: cell-based; settings: MDA-MB-231, 1 uM 14,15-EET, 24 hours
Protocol: Cells were plated in complete media in the presence of serum (10% FBS) and cultured at 37° C. with 5% CO2 and treated with HBB for 24 hours in the presence and absence of 1 uM 14,15-EET. Growth was then measured at 24 hours by MTT assay.
Results are expressed as mean±standard deviation (n=8).

[9] = system: MCF7; assay: Cell cycle analysis by flow cytometry, MCF7; format: cell-based; settings: MCF7, HBB 20 uM, 6 hours
Protocol: Cells in log phase growth treated with HBB (20 uM) or DMSO for 6 hours were trypsinized and fixed in 70% ethanol at 4° C. overnight. The cells were washed with cold PBS and resuspended in Nicoletti buffer (50 μg/ml propidium iodide, 0.1% Triton X-100, 0.1% sodium citrate, pH 7.4, and 1 mg/ml RNase). The samples were then analyzed by flow cytometry (BD Biosciences), and data were analyzed using FlowJo software (Tree Star). Representative profile are shown.

[10] = system: MCF7 line; assay: 14,15-EET protection against biguanide growth inhibition, MTT, MCF7; format: cell-based; settings: MCF-7, exogenous (±)-14,15-EET (1 uM)
Protocol: Cells were plated in complete media in the presence of serum (10% FBS) and cultured at 37° C. with 5% CO2 and treated with biguanides for 24 hours in the presence or absence of 1 uM 14,15-EET. Growth was then measured at 24 hour by MTT assay.

Chain of CYP3A4 nanodiscs (P08684 whole entry): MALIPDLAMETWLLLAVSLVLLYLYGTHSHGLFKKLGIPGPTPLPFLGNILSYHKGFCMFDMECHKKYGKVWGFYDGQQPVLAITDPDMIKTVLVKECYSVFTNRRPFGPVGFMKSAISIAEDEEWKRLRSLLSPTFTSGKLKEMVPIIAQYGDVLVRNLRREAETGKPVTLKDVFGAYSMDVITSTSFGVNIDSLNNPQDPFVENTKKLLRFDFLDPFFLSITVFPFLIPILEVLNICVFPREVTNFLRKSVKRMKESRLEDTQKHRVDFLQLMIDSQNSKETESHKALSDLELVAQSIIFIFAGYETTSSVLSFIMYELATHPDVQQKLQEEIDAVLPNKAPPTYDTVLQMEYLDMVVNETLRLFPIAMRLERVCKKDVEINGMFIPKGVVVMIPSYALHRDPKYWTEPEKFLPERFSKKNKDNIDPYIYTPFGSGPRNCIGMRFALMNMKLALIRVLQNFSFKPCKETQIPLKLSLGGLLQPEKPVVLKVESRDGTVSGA

CCCCCCNC(=N)NC(=N)NCc1ccccc1 [HBB, N1-hexyl-N5-benzyl biguanide]
IC50 ([1]; MTT assay at 24 hours, 10% FBS, read-out: IC50, MCF-7 growth): ~20 µM and 20 µM
fold more potent than metformin, MCF-7 growth ([1]; vs metformin): ~250 fold
angiogenesis (CD31 staining) [2]: inhibited angiogenesis in both models
ROS production relative to DMSO [3]: induced significant ROS production
extracellular acidification rate (ECAR) [4]: inhibits both OCR and ECAR
oxygen consumption rate (OCR) [4]: inhibits oxygen consumption rate (OCR); also recorded: inhibits both OCR and ECAR
fold more potent than metformin, CYP3A4 nanodisc spin shift [5]: ~4 fold
tumor growth, MCF-7 xenograft [6]: significant reduction in early engraftment/tumor growth; also recorded: only in the MCF-7 model; also recorded: inhibits the ER+ MCF-7
STAT3 phosphorylation relative to control ([7]; MCF7, 6 hours, HBB 20 uM, metformin 10 uM): decreased phosphorylation of STAT3
fold more potent than metformin, inhibition of Stat3 phosphorylation ([7]; vs metformin): ~50 fold
rescue of MDA-MB-231 growth by 14,15-EET in the presence of the biguanide [8]: no protection
cell cycle arrest [9]: induces G0/G1 and G2/M cell cycle arrest
rescue of MCF-7 growth by 14,15-EET in the presence of the biguanide [10]: partially restores growth; also recorded: partial rescue
